Patent publication US10153510B2, “Non-aqueous redox flow batteries including 3,7-perfluoroalkylated phenothiazine derivatives” (University of Kentucky Research Foundation, priority 2014, dated 2018)
≈ marks a conversion by molar mass, not a printed value. Where “and” joins values, the source holds several entries; their conditions need not be identical. Equal entries are not always repeated. Where two headings read alike, the source gives them in different places.

Experiments:
[1] = Stability rating of phenothiazine derivatives (Table 2 compilation); format: physicochemical
Excerpt: (§1) Table 2 includes a compilation of data related to phenothiazine derivatives overcharge data of phenothiazine compounds as well as whether the compounds are practical for use in redox flow batteries. Some phenothiazine derivatives have solubility and stability sufficient for overcharge protection, they are not sufficiently soluble to be practical for redox flow applications. As exemplified in Table 2, EPT and DClEPT are practical for overcharge protection but are not practical for redox flow.
(§2) The data includes overcharge data at 100% overcharge for EPT, DBrEPT, DClEPT, BCF3EPT and DCNEPT from Ergun, et al. Chem. Comm., 2014, 50, 5339-5341. (30) Overcharge data at constant overcharge for EPT and BCF3EPT is derived from the studies described in Kaur et al., J. Materials Chemistry A, 2014, 2, 18190-18193. (29) Overcharge data at 100% overcharge for PT, MPT and EPT provided in Table 2 was derived from studies described in Narayana et al. ChemPhysChem, 2015, 16, 1179-1189. (32) Overcharge results for BCF3CF2EPT and BCF3(4-CF3C6H4)PT are provided in FIGS. 10 and 11, respectively.

[2] = Solubility of phenothiazine derivatives (Table 2 compilation); format: physicochemical; details: electrolyte not stated
Excerpt: as §1, §2

[3] = UV-vis stability of neutral and radical-cation forms (bulk electrolysis); format: physicochemical; details: for stability of neutral compound by UV-vis: 0.2 mM and 5 mM in LiBF4/PC, over 5 h
Description: (§3) Electrochemical experiments were performed in an argon-filled glovebox at room temperature. Cyclic voltammetry (CV) measurements were performed in a three-electrode cell with a 3 mm diameter glassy carbon working electrode, Pt wire counter electrode, and Li foil reference electrode; voltammograms were taken of 0.2 M LiBF4 in PC containing 5 mM analyte using a CH Instruments 605E potentiostat. For UV-vis spectra of neutral compounds, catholytes were dissolved at 0.2 mM or 5 mM in 0.2 M LiBF4 in PC in glovebox and were removed in special optical glass cuvettes (Starna) after sealing with Teflon caps. The solutions were subsequently monitored for 5 h on an Agilent 8453 diode-array spectrometer.
Bulk electrolysis experiments were performed at 5 mM analyte in 0.2 M LiBF4 in PC with a Pt coiled-wire working electrode and a Li foil reference electrode, as well as a Pt wire counter electrode suspended in solution in a separate fitted glass tube. Electrolysis potentials were applied for 84 min in the glovebox, after which the solutions were diluted and removed from the glovebox in special optical glass cuvettes (Starna) sealed with Teflon caps. The solutions were subsequently monitored for 5 hours on an Agilent 8453 diode-array spectrometer.
Additionally, a compound that is stable in ambient conditions may be sensitive to electrolyte components, as was previously observed for a phenothiazine derivative with a tert-butyl group at the N position.(31) To compare the stability of the neutral and radical-cation forms of BCF3EPT to those of DBBB, UV-vis spectra were collected for both of the oxidation states of both compounds in LiBF4/PC. […] To simulate the charged species of each catholyte, the radical cation was generated by bulk electrolysis.

[4] = Cyclic voltammetry, half wave redox potentials; format: physicochemical; details: 20 mV/s; for Low potential event vs. Li+/0: 5 mM analyte in 0.2 M LiBF4 in PC; for High potential event vs. Li+/0: 5 mM in 0.2 M LiBF4 in PC, (a) irreversible oxidation potential estimated from forward wave and estimated reverse wave
Description: as §3
Cyclic voltammetry was used to characterize the electrochemical behavior of BCF3EPT and to characterize DBBB and TMeQ for comparison with reported data. The individual redox events for these electro-active materials can be used to estimate the open-circuit voltage (OCV) of an ORFB containing each catholyte-anolyte pair. LiBF4 (0.2M) was used in propylene carbonate (PC) for these experiments to allow for direct comparison with the previously reported DBBB/TMeQ battery. The voltammograms of BCF3EPT show a reversible first oxidation at a potential of 3.9 V vs. Li+/0, which corresponds to generation of the radical cation, followed by an irreversible second oxidation at ca. 4.4 V vs. Li+/0 (FIG. 2a) corresponding to formation of the dication. […] No peaks corresponding to the reduction of the neutral compounds was observed during the anodic scans of BC3EPT and DBBB in this electrolyte. […] The redox potentials of BCF3EPT and DBBB are similar, thus it is contemplated that they will give similar cell voltages when coupled with TMeQ in an ORFB.

[5] = Maximum solubility of electro-active species in 0.2 M LiBF4 in PC; format: physicochemical; details: organic solvent or mixture, thermodynamic from solid, room temperature
Description: as §3
To study the behavior of the new catholyte BCF3EPT relative to DBBB, a set of batteries with the same concentration of electro-active species as the reported DBBB/TMeQ battery (0.05 M), as well as with the highest concentration possible for all three species, were identified for comparison. The maximum solubilities for DBBB, TMeQ and BCF3EPT in 0.2 M LiBF4 in PC were ca. 0.18 M, 0.37 M, and 1.2 M, respectively. […] Batteries were also fabricated at the highest concentration possible for BCF3EPT and TMeQ (0.35 M), beyond that which was possible for DBBB. By this measure, two sets of batteries were able to be tested at the same concentrations, including one near the limiting concentration of DBBB, and a third that allowed for analysis of a battery near the solubility limit of TMeQ.

[6] = 1.2 M LiPF6 in EC/EMC; cited from earlier work
[7] = organic solvent or mixture, read-out: Solubility

Row | Structure (SMILES) | Stability [1] | Solubility [2] | also measured
1 | CCN1c2ccc(C#N)cc2Sc2cc(C#N)ccc21 [BCF3(4-CF3C6H4)PT] | High |  | 
2 | c1ccc2c(c1)Nc1ccccc1S2 [PT] | Low | 100 mM (≈ 19.9 mg/mL) | 
3 | COCCOc1cc(C(C)(C)C)c(OCCOC)cc1C(C)(C)C [DBBB, 2,5-di-tert-butyl-1,4-bis(2-methoxyethoxy)benzene] |  |  | stability of neutral compound by UV-vis [3]: neither compound showed measurable signs of change; Low potential event vs. Li+/0 [4]: 4.0 V; High potential event vs. Li+/0 [4]: 4.7 V and 4.7^(a) V; solubility at 1 h [5]: ~180 mM (≈ 60.9 mg/mL)
4 | Cc1ccc2nc(C)c(C)nc2c1 [TMeQ, 2,3,6-trimethyl quinoxaline] |  |  | Low potential event vs. Li+/0 [4]: 2.5 V; High potential event vs. Li+/0 [4]: 2.8 V; solubility at 1 h [5]: ~370 mM (≈ 63.7 mg/mL)
5 | CCN1c2ccc(C(F)(F)F)cc2Sc2cc(C(F)(F)F)ccc21 [BCF3EPT, 3,7-bis(trifluoromethyl)-N-ethylphenothiazine] | high |  | stability of neutral compound by UV-vis [3]: neither compound showed measurable signs of change; stability of radical cation (UV-vis, comparison) ([3]; 0.2 M LiBF4 in PC, 5 h period): significantly more stable; Low potential event vs. Li+/0 [4]: 3.9 V; stability relative to DDB [6]: higher stability; Solubility [2, 7]: 1500 to 2000 mM (≈ 545 to 727 mg/mL); solubility at 1 h [5]: ~1200 mM (≈ 436 mg/mL)
6 | CCN1c2ccccc2Sc2ccccc21 [EPT] | High |  | Solubility [2, 7]: 100 mM (≈ 22.7 mg/mL)
7 | CCN1c2ccc(Br)cc2Sc2cc(Br)ccc21 [DBrEPT] | high | 100 mM (≈ 38.5 mg/mL) | 
8 | CCN1c2ccc(Cl)cc2Sc2cc(Cl)ccc21 [DClEPT] | High | 100 mM (≈ 29.6 mg/mL) | 
9 | CCN1c2ccc([N+](=O)[O-])cc2Sc2cc([N+](=O)[O-])ccc21 [DNO2EPT] |  | Low | 
10 | CCN1c2ccc(C#N)cc2Sc2cc(C#N)ccc21 [DCNEPT] | high | low | 
11 | CCN1c2ccc(C(F)(F)C(F)(F)F)cc2Sc2cc(C(F)(F)C(F)(F)F)ccc21 [BCF3CF2EPT] | High |  | 
12 | CN1c2ccccc2Sc2ccccc21 [MPT] | high | 100 mM (≈ 21.3 mg/mL) | 
